Measurements published in publication PMC11346428, “Biophysical and structural analyses of the interaction between the SHANK1 PDZ domain and an internal SLiM” (Biochemical Journal, 2024).
Values belong to the molecule of their own block, whether it stands above or below them. Residues, ends and D or L forms follow the SMILES beside them. *: point of attachment. 5FAM = O=C1OC2(c3ccc(O)cc3Oc3cc(O)ccc32)c2ccc(C(=O)*)cc21; Ahx = NCCCCCC(=O)O

What was measured:
[1] = biological target: T1, SHANK1 PDZ domain (656–762) (Homo sapiens, UniProt Q9Y566); assay: Fluorescence anisotropy direct titration; format: binding; details: 50 mM NH4OAc, pH 6.5
T1 construct: Human SHANK1 PDZ domain (656–762) was prepared as described previously; GST (N, cleaved yes); made in house; host or cells: E. coli BL21 Gold (pGEX-6P-2)
T1 sequence (Q9Y566 656-762): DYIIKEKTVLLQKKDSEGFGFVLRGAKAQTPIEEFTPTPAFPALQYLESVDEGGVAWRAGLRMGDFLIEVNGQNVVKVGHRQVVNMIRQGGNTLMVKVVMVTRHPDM
Experimental: Direct titration assays were performed in 384-well plates (Greiner Bio-one). Two hundred micromolars of SHANK1 protein was dialyzed into the assay buffer before use. Twenty microlitres of the assay buffer (50 mM ammonium-acetate, pH 6.5) was first added to each well. Twenty microlitres of the target protein sample was then added to the first column, followed by a two-fold serial dilution over 24 points. Twenty microlitres of 50 nM tracer peptide or 20 µl of the assay buffer was added to the corresponding row wells. The titration was performed in triplicate. […] The P (perpendicular intensity) and S (parallel intensity) channels raw data were obtained. The data processing and formulae are shown in the Supporting Information 2.6.
(§1) . Reversed Phase C18 column, mobile phase A (0.1% TFA in water), mobile phase B
2.6 Equations for data calculation in fluorescent anisotropy direct titration The intensity and anisotropy were calculated by using Equations 1 and 2. The data was fitted to a sigmoidal logistic model to obtain r min and rmax, and the L b was further calculated (Equation 3). Finally, the data was fitted to a nonlinear curve model (Equation 4), to obtain the value of KD.
I = total intensity, r = anisotropy, P = perpendicular intensity, S = parallel intensity, G is an instrument gain factor, L b = fraction ligand bound, λ = Ibound/Iunbound = 1, [FL] = concentration of fluorescent ligand, k = K D and x = [added titrant].
2.7 Equations for data calculation in fluorescent anisotropy competition assays The calculated average anisotropy values and their standard deviation were fitted using a sigmoidal logistic model (Equation 5). y = r = anisotropy, xo = mid-point of the curve between the r max and rmin plateau. […]

[2] = biological target: T1, SHANK1 PDZ domain (656–762); assay: Fluorescence anisotropy competition assay; format: binding; details: 50 nM tracer, 1 μM SHANK1, 50 mM NH4OAc, pH 6.5, triplicate
Experimental: FA competition assays were also performed in 50 mM NH4OAc, pH 6.5 buffer in 384-well plates. Twenty microlitres of the assay buffer was first added to wells. Twenty microlitres of 5000 µM competitor peptides was added to the first columns, followed by a twofold serial dilution over 16 points. Three micromolars of SHANK1 protein was dialyzed into the assay buffer before use. Twenty microlitres of the SHANK1 protein was added to each well to give a final protein concentration of 1 μM. Twenty microlitres of 50 nM tracer peptides or 20 µl of the assay buffer was added to corresponding row wells. The titration was performed in triplicate. Plates were read immediately with an excitation and emission wavelength of 480 and 535 nm respectively (dichroic mirror 505 nm), and after an hour or after 24 h on the plate reader with the same parameters as described above. The data processing and formulae are shown in the Supporting Information 2.7.
Time (min) Mobile phase A (%) Mobile phase B (%) Flow (mL/min) […]
as §1
2.6 Equations for data calculation in fluorescent anisotropy direct titration The intensity and anisotropy were calculated by using Equations 1 and 2. The data was fitted to a sigmoidal logistic model to obtain r min and rmax, and the L b was further calculated (Equation 3). […]

[3] = biological target: T1, SHANK1 PDZ domain (656–762); assay: Isothermal titration calorimetry (ITC); details: 25 mM Tris, pH 7.5, 150 mM NaCl, 25°C; 500 μM peptide injected into 50 μM protein; one-binding site model
Experimental: A Microcal ITC200i instrument (Malvern) was employed to carry out the ITC experiments. Prior to use, SHANK1 protein was dialyzed against 20 mM Tris, 150 mM NaCl, pH 7.5 buffer. […] Sixty microlitres of every test peptide was placed in the syringe to titrate against 350 µl of 50 µM Shank1 protein in the cell. The injection volumes were 2 µl each, injection time 6 s, and a 120 s delay between each injection for 20 injections in total. The titration for peptide into buffer was subtracted from the titration for peptide into protein to account for the heat of peptide dilution. Raw data was processed in the software Microcal Origin 8 and fit to a one-binding site model.

[4] = biological target: T2, Ac-EESTSFQGP-CONH2; assay: fluorescence anisotropy competition (tracer FAM-Ahx-EESTSFQGP-CONH2)
T2 chain: Ac-EESTSFQGP-NH2

[5] = biological target: T3, FAM-Ahx-EESTSFQGP-CONH2; assay: fluorescence anisotropy direct titration
T3 chain: {FAM-Ahx}-EESTSFQGP-NH2

[6] = 50 nM labelled peptide as tracer, plates read after 24 hr incubation at room temperature, read-out: KD (FA direct titration, Figure S1)

Molecule: CC(C)[C@H](NC(=O)CNC(=O)[C@H](CCC(N)=O)NC(=O)[C@H](Cc1ccccc1)NC(=O)[C@H](CO)NC(=O)[C@@H](NC(=O)[C@H](CO)NC(=O)[C@H](CCC(=O)O)NC(=O)CCCCCNC(=O)c1ccc2c(c1)C(=O)OC21c2ccc(O)cc2Oc2cc(O)ccc21)[C@@H](C)O)C(=O)N[C@@H](CCCCN)C(=O)N[C@@H](CO)C(=O)NCC(=O)N1CCC[C@H]1C(=O)N[C@H](C(=O)N[C@@H](CO)C(=O)N[C@H](C(=O)N[C@@H](C)C(N)=O)C(C)C)C(C)C [FAM-Ahx-ELFN1579-594-CONH2] ({5FAM-Ahx}-ESTSFQGVKSGPVSVA-NH2)
Kd [1, 6]: 3.6 ± 0.7 µM

Molecule: CC[C@H](C)[C@H](NC(=O)[C@H](CC(C)C)NC(=O)[C@H](CCC(=O)O)NC(=O)[C@@H]1CCCN1C(=O)[C@H](Cc1ccccc1)NC(=O)CCCCCNC(=O)c1ccc2c(c1)C(=O)OC21c2ccc(O)cc2Oc2cc(O)ccc21)C(=O)N[C@@H](CCC(N)=O)C(=O)N[C@@H](CC(=O)O)C(=O)N[C@H](C(=O)N[C@@H](CO)C(=O)N[C@H](C(=O)N[C@@H](CO)C(=O)N[C@@H](Cc1ccccc1)C(=O)N[C@@H](CO)C(=O)N[C@H](C(=O)N[C@H](C(=O)N[C@@H](CCCNC(=N)N)C(N)=O)[C@@H](C)O)[C@@H](C)O)[C@@H](C)O)[C@@H](C)O [FAM-Ahx-ARAP31414-1429-CONH2] ({5FAM-Ahx}-FPELIQDTSTSFSTTR-NH2)
Kd [1, 6]: 12.2 ± 8.3 µM

Molecule: Ac-EESTSFQGP-NH2
IC50 ([2]; competition against SHANK1/FAM-Ahx-EESTSFQGP-CONH2 interaction): 3.9 ± 0.1 µM
IC50 ([2]; competition against SHANK1/FITC-Ahx-EAQTRL-COOH interaction): 3.3 ± 0.2 µM
Kd [3]: 0.96 µM

More lines, now with the values ahead:

Kd ([1]; FA direct titration of SHANK1 into 50 nM tracer peptide, 25°C, triplicate, read-out: KD): 0.81 ± 0.08 µM
Molecule: C[C@@H](O)[C@H](NC(=O)[C@H](CO)NC(=O)[C@H](CCC(=O)O)NC(=O)[C@H](CCC(=O)O)NC(=O)CCCCCNC(=O)c1ccc2c(c1)C(=O)OC21c2ccc(O)cc2Oc2cc(O)ccc21)C(=O)N[C@@H](CO)C(=O)N[C@@H](Cc1ccccc1)C(=O)N[C@@H](CCC(N)=O)C(=O)NCC(=O)N1CCC[C@H]1C(N)=O ({5FAM-Ahx}-EESTSFQGP-NH2)

IC50 [4]: 3.9 µM
Kd [5]: 0.81 µM
B1: SHANK1 PDZ domain 656-762 (protein)
chain: DYIIKEKTVLLQKKDSEGFGFVLRGAKAQTPIEEFTPTPAFPALQYLESVDEGGVAWRAGLRMGDFLIEVNGQNVVKVGHRQVVNMIRQGGNTLMVKVVMVTRHPDM
